# US12319640B2, “Cyclic diones as herbicidal compounds” (SYNGENTA CROP PROTECTION AG, priority 2019, dated 2025)
# Tests used:
# Test in all cases: Glasshouse herbicide test, pre- and post-emergence
# Assay type in all cases: in vivo
# [1] = system: Alopecurus myosuroides (ALOMY); conditions: 250 g/h, evaluated after 13 days, five-point scale; for percentage damage caused to the plant, ALOMY POST: post-emergence; for percentage damage caused to the plant, ALOMY PRE: pre-emergence
# Experimental: (§1) Seeds of a variety of test species are sown in standard soil in pots (Lolium perenne (LOLPE), Setaria faberi (SETFA), Alopecurus myosuroides (ALOMY), Echinochloa crus-galli (ECHCG), Avena fatua (AVEFA)). After cultivation for one day (pre-emergence) or after 8 days cultivation (post-emergence) under controlled conditions in a glasshouse (at 24/16° C., day/night; 14 hours light; 65% humidity), the plants are sprayed with an aqueous spray solution derived from the formulation of the technical active ingredient in acetone/water (50:50) solution containing 0.5% Tween 20 (polyoxyethelyene sorbitan monolaurate, CAS RN 9005-64-5). Compounds are applied at 250 g/h. The test plants are then grown in a glasshouse under controlled conditions in a glasshouse (at 24/16° C., day/night; 14 hours light; 65% humidity) and watered twice daily. After 13 days for pre and post-emergence, the test is evaluated for the percentage damage caused to the plant. The biological activities are shown in the following table on a five-point scale (5=80-100%; 4=60-79%; 3=40-59%; 2=20-39%; 1=0-19%).
# Avena fatua (AVEFA) = conditions: 250 g/h, evaluated after 13 days, five-point scale; for percentage damage caused to the plant, AVEFA POST: post-emergence; for percentage damage caused to the plant, AVEFA PRE: pre-emergence
# Experimental: as §1
# [2] = system: Echinochloa crus-galli (ECHCG); conditions: 250 g/h, evaluated after 13 days, five-point scale; for percentage damage caused to the plant, ECHCG POST: post-emergence; for percentage damage caused to the plant, ECHCG PRE: pre-emergence
# Experimental: as §1
# Lolium perenne (LOLPE) = conditions: 250 g/h, evaluated after 13 days, five-point scale; for percentage damage caused to the plant, LOLPE POST: post-emergence; for percentage damage caused to the plant, LOLPE PRE: pre-emergence
# Experimental: as §1
# Setaria faberi (SETFA) = conditions: 250 g/h, evaluated after 13 days, five-point scale; for percentage damage caused to the plant, SETFA POST: post-emergence; for percentage damage caused to the plant, SETFA PRE: pre-emergence
# Experimental: as §1
SMILES,"percentage damage caused to the plant, ALOMY POST [1]","percentage damage caused to the plant, ALOMY PRE [1]","percentage damage caused to the plant, AVEFA POST (Avena fatua (AVEFA))","percentage damage caused to the plant, AVEFA PRE (Avena fatua (AVEFA))","percentage damage caused to the plant, ECHCG POST [2]","percentage damage caused to the plant, ECHCG PRE [2]","percentage damage caused to the plant, LOLPE POST (Lolium perenne (LOLPE))","percentage damage caused to the plant, LOLPE PRE (Lolium perenne (LOLPE))","percentage damage caused to the plant, SETFA POST (Setaria faberi (SETFA))","percentage damage caused to the plant, SETFA PRE (Setaria faberi (SETFA))"
CC(=O)NC1CCC2(CC1)CC(=O)C(c1c(C)cc(-c3ccc(F)cn3)cc1C)C(=O)C2 (stereo not shown) [Compound 2.032],5 (5=80-100%),5 (5=80-100%),5 (5=80-100%),4 (4=60-79%),5 (5=80-100%),5 (5=80-100%),5 (5=80-100%),5 (5=80-100%),5 (5=80-100%),5 (5=80-100%)
CC(=O)NC1CCC2(CC1)CC(=O)C(c1c(C)cc(-c3ccc(F)cc3)cc1C)C(=O)C2 (stereo not shown) [Compound 2.027],5 (5=80-100%),3 (3=40-59%),5 (5=80-100%),4 (4=60-79%),5 (5=80-100%),2 (2=20-39%),5 (5=80-100%),4 (4=60-79%),5 (5=80-100%),5 (5=80-100%)
CC#Cc1cc(C)c(C2C(=O)CC3(CCC(NC(=O)[C@H](C)O)CC3)CC2=O)c(C)c1 (stereo partly shown) [Compound 2.017],5 (5=80-100%),4 (4=60-79%),5 (5=80-100%),4 (4=60-79%),5 (5=80-100%),5 (5=80-100%),5 (5=80-100%),4 (4=60-79%),5 (5=80-100%),5 (5=80-100%)
CC#Cc1cc(C)c(C2C(=O)CC3(CCC(NC(=O)c4ccnc(F)c4)CC3)CC2=O)c(C)c1 (stereo not shown) [Compound 2.018],5 (5=80-100%),4 (4=60-79%),5 (5=80-100%),5 (5=80-100%),5 (5=80-100%),5 (5=80-100%),5 (5=80-100%),5 (5=80-100%),5 (5=80-100%),5 (5=80-100%)
CC#Cc1cc(C)c(C2C(=O)CC3(CCC(NC(=O)C(C)(C)C)CC3)CC2=O)c(C)c1 (stereo not shown) [Compound 2.005],5 (5=80-100%),5 (5=80-100%),5 (5=80-100%),5 (5=80-100%),5 (5=80-100%),5 (5=80-100%),5 (5=80-100%),5 (5=80-100%),5 (5=80-100%),5 (5=80-100%)
CC#Cc1cc(C)c(C2C(=O)CC3(CCC(C(=O)NCCOC)CC3)CC2=O)c(C)c1 (stereo not shown) [Compound 1.011],5 (5=80-100%),5 (5=80-100%),5 (5=80-100%),5 (5=80-100%),5 (5=80-100%),5 (5=80-100%),5 (5=80-100%),5 (5=80-100%),5 (5=80-100%),5 (5=80-100%)
CC#Cc1cc(C)c(C2C(=O)CC3(CCC(NC(=O)c4nccnc4C)CC3)CC2=O)c(C)c1 (stereo not shown) [Compound 2.015],5 (5=80-100%),4 (4=60-79%),5 (5=80-100%),5 (5=80-100%),5 (5=80-100%),5 (5=80-100%),5 (5=80-100%),5 (5=80-100%),5 (5=80-100%),5 (5=80-100%)
